Data from patent US20160038448A1, “THE INHIBITION OF THE TOXIC EFFECTS OF ISLET AMYLOID FORMATION BY FLURBIPROFEN AND FLURBIPROFEN DERIVATIVES” (The Research Foundation for the State University of New York, priority 2013, published 2016).
“Also recorded” adds a separate entry of the source. Values belong to the compound of their own block, whether it stands above or below them.

Experiments:
[1] = target: T1, human IAPP (Homo sapiens, UniProt P10997); experiment: Fluorescence detected thioflavin-T assay of the time course of amyloid formation; format: biochemical; conditions: for effect on islet amyloid formation (thioflavin-T time course): compound 20 parts, human IAPP 1 part, example in present tense; for inhibition of amyloid formation by human IAPP (amylin): 20 to 1 ratio of NSAID to human IAPP, pH 7.4, 25° C.
T1 construct: Mature, fully processed, Amylin is 37 residues in length, contains a disulfide bond between residues 2 and 7; made in house; host or cells: chemical solid-phase peptide synthesis (Fmoc), no expression host
T1 sequence (P10997 34-70 limits assumed): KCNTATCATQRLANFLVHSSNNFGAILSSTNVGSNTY
Method: Peptides were first dissolved in 100% hexafluoroisopropanol (HFIP) at a concentration 1.6 mM and then filtered to remove any preformed amyloid aggregates. For thioflavin-T fluorescence assays, aliquots were lyophilized and redissolved in pH 7.4, 20 mM Tris-HCl buffer at the desired concentration. Aspirin and Ketoprofen were prepared in 100% dimethyl sulfoxide (DMSO).
Solutions were prepared by adding pH 7.4, 20 mM Tris buffer and thioflavin-T to lyophilized dry peptides for a final peptide concentration of […]. For the studies of Aspirin and Ketoprofen, 0.25% DMSO was present in the solution. Measurements were made at 25° C. using a Beckman Coulter DTX880 plate reader without stirring. An excitation filter of 430 nm and an emission filter of 485 nm were used. To test disaggregate activity of Aspirin, peptide was first incubated in low-binding 96-wells plate and monitored by plate reader to ensure the formation of amyloid fibrils.
A mixture of flurbiprofen (1-20 parts) and human IAPP (1 part) was monitored by fluorescence detected thioflavin-T assays. The assays monitored the time course of amyloid formation (amount vs time) in the presence and absence of flurbiprofen.
A mixture of OH-flurbiprofen and human IAPP were monitored by fluorescence detected thioflavin-T assays. Three different concentrations (1:1 ratio, 1:10 ratio and 1:20 ratio of IAPP to OH-flurbiprofen) were tested against human IAPP without any added OH-flurbiprofen. The assays monitored the time course of amyloid formation (amount vs time) in the presence and absence of a flurbiprofen derivative.
Three different mixtures of NSAIDs (20 parts) and human IAPP (1 parts) were compared to each other and human IAPP alone by fluorescence detected thioflavin-T assays. The assays monitored the time course of amyloid formation (amount vs time) in the presence and absence of aspirin, naproxen and flurbiprofen.

[2] = tested on: rat INS-1 beta-cells; experiment: AlamarBlue cell viability of beta-cells given aliquots of the IAPP amyloid time course; format: cell-based
Method: FIG. 5. […] (A) A thioflavin-T monitored time course of amyloid formation in the presence and absence of flurbiprofen. […] 20 mM Tris-HCl buffer with 0.25% DMSO was used as the control.
The presence of toxic intermediates is reduced when amyloid formation is accelerated by use of flurbiprofen or a flurbiprofen derivative. A thioflavin-T monitored time course of amyloid formation by human IAPP was conducted in the presence and absence of flurbiprofen. Aliquots were removed at various time points and applied to rat INS-1 beta-cells; at thirty minutes, at 12 hours, at 48 hours. Cell viability as judged by AlamarBlue assays. 20 mM Tris-HCl buffer with 0.25% DMSO was used as the control.

[3] = Parallel biophysical and cell viability experiments on h-IAPP variants; format: cell-based
Method: Parallel biophysical and cell viability experiments were conducted using a range of conditions that alter the length of the lag phase. h-IAPP amyloid kinetics are concentration-dependent. Decreasing the peptide concentration leads to an increase in the length of the lag phase, while an increase in human-IAPP concentration leads to a shortening of the lag phase. The length of the lag phase can also be controlled by altering the temperature. Lower temperatures lead to a longer lag phase; the lag phase is 2-fold longer at 15° C. […] A set of rationally designed Ser-20 mutations were used. Ser-20 is located at a critical position in the h-IAPP sequence and modulates its aggregation kinetics. […] Toxicity and kinetics experiments were performed on the Ser-20 mutants. […] An human-IAPP triple mutant, 3×L-IAPP, in which Leu replaced the three aromatic residues (Phe-15, Phe=23 and Tyr-37) was tested. This mutant forms amyloid 9-fold more slowly than wild type human IAPP (Marek at al. 2007). […] The duration of toxicity for all the mutants and for all the conditions with human IAPP wild type correlated with the length of the respective lag phases.

[4] = target: T2, human IAPP (amylin) (Homo sapiens, UniProt P10997); experiment: Transmission electron microscopy of amyloid fibrils; format: biochemical
T2 construct: Mature, fully processed, Amylin is 37 residues in length, contains a disulfide bond between residues 2 and 7; made in house; host or cells: chemical solid-phase peptide synthesis (Fmoc), no expression host
T2 sequence (P10997 34-70 limits assumed): T1 sequence (P10997 34-70 limits assumed)
Method: TEM was performed at the Life Science Microscopy Center at Stony Brook University. Aliquots were removed from the same solutions that were used for the fluorescence measurements. 5 μL of peptide solution was placed on carbon-coated Formvar 300 mesh copper grid for one minute and then negatively stained with saturated uranyl acetate for another one minute.

[5] = target: T3, pre-formed human amylin amyloid fibrils (Homo sapiens, UniProt P10997); experiment: Disaggregation of pre-formed amylin amyloid fibrils (thioflavin-T and TEM); format: biochemical; conditions: 20-fold excess added after amyloid formation was complete; up to 48 hours
T3 construct: Mature, fully processed, Amylin is 37 residues in length, contains a disulfide bond between residues 2 and 7; made in house; host or cells: chemical solid-phase peptide synthesis (Fmoc), no expression host
T3 sequence (P10997 34-70 limits assumed): T1 sequence (P10997 34-70 limits assumed)
Method: Solutions were prepared by adding pH 7.4, 20 mM Tris buffer and thioflavin-T to lyophilized dry peptides for a final peptide concentration of 16 M. For the studies of Aspirin and Ketoprofen, 0.25% DMSO was present in the solution. Measurements were made at 25° C. using a Beckman Coulter DTX880 plate reader without stirring. An excitation filter of 430 nm and an emission filter of 485 nm were used.

[6] = tested on: 3XL-IAPP mutant (F15L, F23L, Y37L human IAPP); experiment: Thioflavin-T assay of mutant human IAPP amyloid formation (3XL); format: biochemical; conditions: WT human IAPP and mutant IAPP compared
Source text: A mixture of flurbiprofen (20 parts) and human IAPP (1 part) was monitored by fluorescence detected thioflavin-T assays. The assays monitored the time course of amyloid formation (amount vs time) in the presence and absence of flurbiprofen. The effect of flurbiprofen in wild-type (WT) human IAPP, and in two mutants of human IAPP was monitored. In one mutant, all of the aromatic amino acids in human IAPP were replaced by […] human IAPP was examined. A second mutant in which […] human IAPP) was also tested.

[7] = compound 20 parts, human IAPP 1 part, example in present tense
[8] = 20 to 1 ratio of compound to human IAPP
[9] = IAPP:compound ratios 1:1 to 1:20, pH 7.4, 20 mM Tris, 25° C.

Compound: O=C(O)Cc1ccc(-c2ccccc2)cc1 [2-(Biphenyl-4-yl)acetic acid, 2-(biphenyl-4-yl)acetic acid]
effect on islet amyloid formation (thioflavin-T time course) [1]: accelerates islet amyloid formation
presence and toxic effects of intermediates of amyloid formation [2, 7]: reduces the presence and toxic effects of intermediates of amyloid formation

Compound: CC[C@H](C)[C@H](NC(=O)[C@H](C)NC(=O)CNC(=O)[C@H](Cc1ccccc1)NC(=O)[C@H](CC(N)=O)NC(=O)[C@H](CC(N)=O)NC(=O)[C@H](CCCCN)NC(=O)[C@H](CO)NC(=O)[C@H](Cc1c[nH]cn1)NC(=O)[C@@H](NC(=O)[C@H](CC(C)C)NC(=O)[C@H](Cc1ccccc1)NC(=O)[C@H](CC(N)=O)NC(=O)[C@H](C)NC(=O)[C@H](CC(C)C)NC(=O)[C@H](CCCNC(=N)N)NC(=O)[C@H](CCC(N)=O)NC(=O)[C@@H](NC(=O)[C@H](C)NC(=O)[C@@H]1CSSC[C@H](NC(=O)[C@@H](N)CCCCN)C(=O)N[C@@H](CC(N)=O)C(=O)N[C@@H]([C@@H](C)O)C(=O)N[C@@H](C)C(=O)N[C@@H]([C@@H](C)O)C(=O)N1)[C@@H](C)O)C(C)C)C(=O)N[C@@H](CC(C)C)C(=O)N[C@@H](CO)C(=O)N[C@@H](CO)C(=O)N[C@H](C(=O)N[C@@H](CC(N)=O)C(=O)N[C@H](C(=O)NCC(=O)N[C@@H](CO)C(=O)N[C@@H](CC(N)=O)C(=O)N[C@H](C(=O)N[C@@H](Cc1ccc(O)cc1)C(N)=O)[C@@H](C)O)C(C)C)[C@@H](C)O [S20K-human IAPP]
onset and duration of toxicity relative to wild type human IAPP [3]: increased the duration of toxicity

Compound: CC(C(=O)O)c1ccc(-c2ccc(O)cc2)c(F)c1 (stereo not shown) [OH-flurbiprofen, 2-(2-fluoro-4′-hydroxybiphenyl-4-yl) propanoic acid]
effect on human IAPP amyloid formation (thioflavin-T time course) [1, 8]: highest rate of acceleration of amyloid formation
effect on human IAPP amyloid formation (thioflavin-T time course) [1, 9]: accelerated islet amyloid formation; also recorded: accelerates amyloid formation by human islet amyloid polypeptide
presence and toxic effects of intermediates of amyloid formation ([2]; human IAPP with compound): reduced the presence and toxic effects of intermediates of amyloid formation in a dose dependent fashion

Compound: O=C(O)Cc1ccc(-c2ccccc2)c(F)c1 [2-(2-Fluorobiphenyl-4-yl)acetic acid, 2-(2-fluorobiphenyl-4-yl)acetic acid]
effect on islet amyloid formation (thioflavin-T time course) [1]: accelerates islet amyloid formation
presence and toxic effects of intermediates of amyloid formation [2, 7]: reduces the presence and toxic effects of intermediates of amyloid formation

Compound: CC[C@H](C)[C@H](NC(=O)[C@H](C)NC(=O)CNC(=O)[C@H](Cc1ccccc1)NC(=O)[C@H](CC(N)=O)NC(=O)[C@H](CC(N)=O)NC(=O)CNC(=O)[C@H](CO)NC(=O)[C@H](Cc1c[nH]cn1)NC(=O)[C@@H](NC(=O)[C@H](CC(C)C)NC(=O)[C@H](Cc1ccccc1)NC(=O)[C@H](CC(N)=O)NC(=O)[C@H](C)NC(=O)[C@H](CC(C)C)NC(=O)[C@H](CCCNC(=N)N)NC(=O)[C@H](CCC(N)=O)NC(=O)[C@@H](NC(=O)[C@H](C)NC(=O)[C@@H]1CSSC[C@H](NC(=O)[C@@H](N)CCCCN)C(=O)N[C@@H](CC(N)=O)C(=O)N[C@@H]([C@@H](C)O)C(=O)N[C@@H](C)C(=O)N[C@@H]([C@@H](C)O)C(=O)N1)[C@@H](C)O)C(C)C)C(=O)N[C@@H](CC(C)C)C(=O)N[C@@H](CO)C(=O)N[C@@H](CO)C(=O)N[C@H](C(=O)N[C@@H](CC(N)=O)C(=O)N[C@H](C(=O)NCC(=O)N[C@@H](CO)C(=O)N[C@@H](CC(N)=O)C(=O)N[C@H](C(=O)N[C@@H](Cc1ccc(O)cc1)C(N)=O)[C@@H](C)O)C(C)C)[C@@H](C)O [S20G-IAPP]
onset and duration of toxicity relative to wild type human IAPP [3]: more rapid onset and shorter duration of toxicity

Compound: C[C@H](C(=O)O)c1ccc(-c2ccccc2)cc1 [(S)-2-(Biphenyl-4-yl)propanoic acid, (S)-2-(biphenyl-4-yl)propanoic acid]
effect on islet amyloid formation (thioflavin-T time course) [1]: accelerates islet amyloid formation
presence and toxic effects of intermediates of amyloid formation [2, 7]: reduces the presence and toxic effects of intermediates of amyloid formation

The next lines start with results.

inhibition of amyloid formation by human IAPP (amylin) [1]: do not inhibit amylin amyloid formation
Compound: CC(C(=O)O)c1cccc(C(=O)c2ccccc2)c1 (stereo not shown) [Ketoprofen]
inhibition of amylin amyloid formation judged by TEM ([4]; equimolar to 20-fold excess of Ketoprofen, 42 hours, amylin 16 μM): not an amylin amyloid inhibitor; also recorded: does not inhibit amyloid formation by amylin
disaggregation of pre-formed amylin amyloid fibrils [5]: unable to disassemble pre-formed amylin amyloid

inhibition of amyloid formation by human IAPP (amylin) [1]: no inhibition of amyloid
amyloid fibrils by TEM in presence of NSAID ([4]; 20-fold excess of NSAID over human IAPP, end of kinetic experiment): no changes in amyloid formation
Compound: COc1ccc2cc([C@H](C)C(=O)O)ccc2c1 [Naproxen]

effect on human IAPP amyloid formation (thioflavin-T time course) [1, 8]: accelerated islet amyloid formation
effect on human IAPP amyloid formation (thioflavin-T time course) ([1]; 20 to 1 ratio of compound to human IAPP, listed as R flurbiprofen): equally effective
Compound: C[C@@H](C(=O)O)c1ccc(-c2ccccc2)c(F)c1 [R-flurbiprofen]
presence and toxic effects of intermediates of amyloid formation ([2]; human IAPP with compound): reduced the presence and toxic effects of intermediates of amyloid formation
acceleration of amyloid formation and reduction of toxic effects of intermediates, WT human IAPP versus mutant IAPP [6]: about equally

effect on human IAPP amyloid formation (thioflavin-T time course) ([1]; 20 to 1 ratio of compound to human IAPP, listed as S flurbiprofen): equally effective
effect on human IAPP amyloid formation (thioflavin-T time course) ([1]; 20 to 1 ratio of compound to human IAPP, listed as S-flurbiprofen): accelerated islet amyloid formation
Compound: S-Flurbiprofen
effect on human IAPP amyloid formation (thioflavin-T time course) [1, 9]: accelerates amyloid formation by human IAPP in a dose dependent manner
presence and toxic effects of intermediates of amyloid formation ([2]; human IAPP with compound): reduced the presence and toxic effects of intermediates of amyloid formation
acceleration of amyloid formation and reduction of toxic effects of intermediates, WT human IAPP versus mutant IAPP [6]: about equally
